The values below come from ChEMBL document CHEMBL1201862, “PubChem BioAssay data set” (2004).

SMILES strings stand for the structures.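 Grown in 96-well plates, cells were treated for 48 hours with each compound at five concentrations. Insufficient inhibition: endpoint recorded as highest concentration tested. GI50 marks 50% less growth.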 Calls of active or inactive are those of the source. No stated cut-off is given here; in the data, active = GI50 up to about 1.1 µM and inactive = higher. A value given as a limit tells only on which side of the number the result lay.

Experiment in all cases: NCI-60 cell line screen, 48 h
The subject of assay [1] is UACC-257.
Assay [2] deals with M14.
Assay [3] relates to HOP-62.
Assay [4] relates to HCC 2998.
In assay [5] the test system is A549.
Assay [6] concerns HOP-92.
Assay [7] concerns HCT-116.
Assay [8] has as its system U-251.
Assay [9] has as its system NCI-H460.
For assay [10], the system named is TK-10.
In assay [11] the test system is CCRF-CEM.
Assay [12] deals with OVCAR-8.
In assay [13] the test system is 786-0.
Assay [14] relates to RPMI-8226.
The subject of assay [15] is MCF7.
Assay [16] relates to MOLT-4.
For assay [17], the system named is SK-OV-3.
Assay [18] concerns UO-31.
The test system of assay [19] is SR.
In assay [20] the test system is SK-MEL-28.

As to `NC(=O)c1csc(C2OC(CO)C(O)C2O)n1` (configuration not stated), the GI50 in assay [1] is 4400 µM (inactive); in [2], 6.84 µM (inactive); in assay [3], 90.8 µM (inactive); in assay [4] it was 467 µM (inactive); in assay [5] it was 102 µM (inactive); in assay [6], 115 µM (inactive). Further, the GI50 was 22.6 µM (inactive) in assay [7]; 8.39 µM (inactive) in assay [8]; 225 µM (inactive) in assay [9]; 237 µM (inactive) in assay [10]; 7.8 µM (inactive) in assay [11]; 26.6 µM (inactive) in assay [12]. The GI50 in [13] was 21.8 µM (inactive); in assay [14] it was 150 µM (inactive); in [15], 31.4 µM (inactive); in assay [16] it was 5.56 µM (inactive); in [17], 61.8 µM (inactive); in [18], 53.2 µM (inactive). Besides, in assay [19], the GI50 was > 31.6 µM (inactive).
Turning to `COc1cc(C2C3=C(COC3=O)Oc3cc4c(cc32)OCO4)ccc1O` (configuration not stated), the GI50 in assay [2] was 0.439 µM (active); in assay [3] it was 0.394 µM (active); in assay [4] it was 0.893 µM (active); in assay [5] it was 0.41 µM (active); in assay [6], 3.59 µM (inactive); in assay [7], 0.448 µM (active). Moreover, the GI50 in assay [8] was 0.467 µM (active); in assay [9], 0.308 µM (active); in [10], > 100 µM (inactive); in assay [11] it was 0.352 µM (active); in assay [12], 0.69 µM (active); in assay [13], 0.481 µM (active). Further, the GI50 in [14] is 0.372 µM (active); in [15] it was 0.277 µM (active); in assay [16], 0.543 µM (active); in [17], 0.302 µM (active); in assay [18], 0.327 µM (active); in assay [19], 0.252 µM (active). For the same compound, in assay [20], the GI50 was 0.847 µM (active).
Consider `CC(=O)N1C(=O)c2cc3ccccc3cc21`, for which the GI50 is > 100 µM (inactive) in assay [2]; 63.5 µM (inactive) in assay [3]; > 100 µM (inactive) in assay [4]; > 100 µM (inactive) in assay [5]; 62.7 µM (inactive) in assay [6]; 61.4 µM (inactive) in assay [7]. Further, the GI50 in assay [8] is > 100 µM (inactive); in assay [9] it was > 100 µM (inactive); in assay [10] it was > 100 µM (inactive); in [11], 78.2 µM (inactive); in assay [12], > 100 µM (inactive); in [13], > 100 µM (inactive). Also, the GI50 in assay [14] is > 100 µM (inactive); in assay [15] it was 31.3 µM (inactive); in assay [17], > 100 µM (inactive); in assay [18], > 100 µM (inactive); in assay [19] it was > 100 µM (inactive); in assay [20] it was > 100 µM (inactive).
On to `Cc1cc2c(c(C(=O)NCCC(=O)O)c1)Oc1c(cc(C)cc1C(=O)NCCC(=O)O)S2`, for which the GI50 in assay [1], in assay [2], in assay [3], in assay [4], in [5] and in assay [6] was > 100 µM (inactive) each time. For the same compound, the GI50 in assay [7], in [8], in [10], in assay [11], in assay [12] and in assay [13] was > 100 µM (inactive) throughout. Besides, the GI50 in assay [14], in assay [15], in assay [16], in [17], in assay [19] and in assay [20] was > 100 µM (inactive) in each case.
`CCOC(=O)[C@@H]1ON2O[C@@H](OC3CCCCC3c3ccccc3)C[C@H]3OC(=O)[C@@H]1C32` (some centres not stated): the GI50 is > 100 µM (inactive) in assay [1]; > 100 µM (inactive) in assay [2]; > 100 µM (inactive) in assay [3]; 66.7 µM (inactive) in [4]; 80.7 µM (inactive) in [5]; > 100 µM (inactive) in [6]. In addition, the GI50 is > 100 µM (inactive) in assay [7]; > 100 µM (inactive) in [8]; 38.1 µM (inactive) in assay [9]; > 100 µM (inactive) in assay [10]; 0.792 µM (active) in [11]; > 100 µM (inactive) in assay [12]. For the same compound, the GI50 in [13], in [14], in assay [15], in assay [16], in [17] and in assay [18] was > 100 µM (inactive) in each case. Moreover, the GI50 in [19] was 97.9 µM (inactive).
Consider `CCCC(=O)N1CCN(c2ccc3c(c2)OC(C)O3)CC1` (configuration not stated), for which the GI50 in assay [1], in [2], in assay [3], in assay [4], in [5] and in [6] was > 100 µM (inactive) each time. Further, the GI50 in assay [7], in [8], in [9], in assay [10], in [11] and in assay [12] was > 100 µM (inactive) each time. Further, the GI50 in assay [13], in assay [15], in assay [16], in assay [17], in assay [18] and in assay [19] was > 100 µM (inactive) each time. Besides, in [20], the GI50 was > 100 µM (inactive).
As to `O=S(=O)(NC1OCCCC1I)c1ccccc1` (configuration not stated), the GI50 in assay [1], in [3], in assay [4], in [5], in [6] and in assay [7] was > 100 µM (inactive) each time. Moreover, the GI50 in assay [8] is > 100 µM (inactive); in assay [9] it was > 100 µM (inactive); in assay [10] it was > 100 µM (inactive); in assay [11] it was 68.4 µM (inactive); in [12], > 100 µM (inactive); in assay [13], > 100 µM (inactive). Moreover, the GI50 was 43.2 µM (inactive) in assay [14]; > 100 µM (inactive) in assay [15]; > 100 µM (inactive) in assay [16]; > 100 µM (inactive) in assay [17]; > 100 µM (inactive) in assay [18]; > 100 µM (inactive) in assay [19]. Also, in [20], the GI50 was > 100 µM (inactive).
For `O=C1CC2OCC=C3CN4CCC5(C(=O)O)C(N1)C2C3CC45` (configuration not stated), the GI50 in assay [1], in assay [2], in assay [3], in assay [4], in [5] and in [6] was > 100 µM (inactive) in each case. Also, the GI50 in assay [7], in assay [8], in [9], in assay [10], in assay [11] and in assay [12] was > 100 µM (inactive) in each case. The GI50 in assay [13], in [15], in assay [16], in assay [17], in [18] and in assay [19] was > 100 µM (inactive) throughout. Besides, the GI50 in [20] is > 100 µM (inactive).
For the compound `Cc1cc(C)n(C2OC(CO)C(O)C(O)C2O)c(=S)c1C#N` (configuration not stated), the GI50 in [1], in assay [2], in assay [3], in assay [4], in assay [5] and in [6] was > 100 µM (inactive) in each case. Moreover, the GI50 in [7], in [8], in [9], in assay [10], in [11] and in assay [12] was > 100 µM (inactive) in each case. The GI50 in [13], in assay [14], in [15], in assay [16], in assay [18] and in assay [19] was > 100 µM (inactive) throughout. The GI50 in [20] is > 100 µM (inactive).
For the compound `Cc1ccc(N(C)S(=O)(=O)c2ccccc2)cc1`, the GI50 in assay [1] is > 100 µM (inactive); in assay [2], > 100 µM (inactive); in assay [3] it was > 100 µM (inactive); in assay [4], > 100 µM (inactive); in assay [5], > 100 µM (inactive); in [7], 86.5 µM (inactive). In addition, the GI50 in [8] is > 100 µM (inactive); in assay [9] it was 87.9 µM (inactive); in assay [10] it was > 100 µM (inactive); in assay [11], > 100 µM (inactive); in [12] it was > 100 µM (inactive); in [13], > 100 µM (inactive). Besides, the GI50 in assay [14] was 59.8 µM (inactive); in assay [15], > 100 µM (inactive); in assay [16] it was 19 µM (inactive); in [17], > 100 µM (inactive); in assay [18] it was > 100 µM (inactive); in assay [19], 84.7 µM (inactive). Moreover, the GI50 in assay [20] is > 100 µM (inactive).
As to `CC(=O)Nc1ccc2c3c(cc(O)c2c1)N(C(=O)CCCCCC(=O)N1CC(CCl)c2c1cc(O)c1cc(NC(C)=O)ccc21)CC3CCl` (configuration not stated), the GI50 in assay [1] was 0.0168 µM (active); in assay [2], < 0.01 µM (active); in [3], 0.019 µM (active); in assay [4], 0.0211 µM (active); in assay [5], 0.0176 µM (active); in assay [6], < 0.01 µM (active). The GI50 in [7] was 0.0101 µM (active); in [8] it was < 0.01 µM (active); in assay [9], < 0.01 µM (active); in assay [10], 0.169 µM (active); in assay [12], < 0.0104 µM (active); in assay [13], < 0.01 µM (active). Besides, the GI50 in assay [14] is 0.0296 µM (active); in [15], < 0.01 µM (active); in assay [16], < 0.01 µM (active); in assay [17], 0.0405 µM (active); in assay [18] it was 0.105 µM (active); in assay [19], < 0.01 µM (active). Moreover, the GI50 in [20] was 0.0547 µM (active).
